Laboratory results reported in the supplement of paper PMC10627819.

Experiments:
[1] = test system: B. subtilis 168; assay: fitness (endpoint OD595 vs no drug) (fraction); higher = more growth
Procedure, shortened: (§1)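 Background-subtracted growth curves were the basis for fitness, taken as the optical density at entry into stationary phase over the robust mean of no-drug control wells. A cap of 1 was applied. The curves came from OD595 readings every 30 min for 14 h at 37 °C, in 384-well plates seeded at OD595 0.01 with 30 µl, or 55 µl for S. pneumoniae.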

[2] = test system: S. pneumoniae D39V; assay: as above
Procedure, shortened: as §1

[3] = test system: S. aureus Newman; assay: as above
Procedure, shortened: as §1

[4] = test system: B. subtilis 168; assay: Bliss interaction score (quartile over a dose matrix) (fitness difference); higher = more antagonism (negative = synergy)
Procedure, shortened: (§2)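 The Bliss score was calculated by subtracting the expected fitness, the product of single-drug values, from the observed fitness. OD595 at entry into stationary phase, over the plate's robust no-drug mean and capped at 1, served as the fitness readout. Single-drug values were inferred from combination data, and scores are summarised by quartiles across technical, biological and donor/recipient replicates.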

[5] = test system: S. pneumoniae D39V; assay: as above
Procedure, shortened: as §2

[6] = test system: S. aureus Newman; assay: as above
Procedure, shortened: as §2

[7] = test system: S. aureus DSM 20231; assay: as above
Procedure, shortened: as §2
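Throughout, for Bliss interaction score (quartile over a dose matrix): first quartile when negative (synergy) and third quartile when positive (antagonism).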

CC1=C(C(=O)O)N2C(=O)[C@@H](NC(=O)[C@H](N)c3ccccc3)[C@H]2SC1 [Cephalexin] + Cc1ncc([N+](=O)[O-])n1CCO [Metronidazole]
fitness
Conditions | partner 0.625 µg/mL | partner 1.073 µg/mL | partner 1.25 µg/mL | partner 2.145 µg/mL | partner 2.5 µg/mL | partner 4.29 µg/mL
[1], first compound 0.125 µg/mL | 0.958 | – | 0.936 | – | 0.963 | –
[1], first compound 0.25 µg/mL | 0.94 | – | 0.91 | – | 0.86 | –
[1], first compound 0.5 µg/mL | 0.943 | – | 0.932 | – | 0.926 | –
[2], first compound 4 µg/mL | – | 0.0041 | – | 0.0332 | – | 0.0078
[3], first compound 0.25 µg/mL | 0.962 | – | ≥ 1 | – | ≥ 1 | –
[3], first compound 0.5 µg/mL | 0.994 | – | 0.984 | – | ≥ 1 | –
[3], first compound 1 µg/mL | ≥ 1 | – | ≥ 1 | – | ≥ 1 | –

fitness, one replicate
Conditions | first compound 0.125 µg/mL | first compound 0.25 µg/mL | first compound 0.5 µg/mL | first compound 1 µg/mL
[2], partner 1.25 µg/mL | ≥ 1 | 0.989 | ≥ 1 | –
[2], partner 2.5 µg/mL | ≥ 1 | ≥ 1 | ≥ 1 | –
[2], partner 5 µg/mL | 0.971 | ≥ 1 | ≥ 1 | –
[3], partner 0.781 µg/mL | – | 0.989 | ≥ 1 | ≥ 1
[3], partner 1.562 µg/mL | – | ≥ 1 | ≥ 1 | ≥ 1
[3], partner 3.124 µg/mL | – | 0.998 | ≥ 1 | ≥ 1

Conditions | Bliss interaction score
[4] | -0.0395
[5] | 0.132
[6] | 0.0215
[7] | 0.0322

CNC(C)C1CCC(N)C(OC2C(N)CC(N)C(OC3OCC(C)(O)C(NC)C3O)C2O)O1 (stereo not given) [Gentamicin] + CN1C2=CC=CC=C2N=C3C1=CC=CC3=O [Pyocyanin]
main component drawn
Conditions | fitness
[1], first compound 0.0625 µg/mL, partner 1.25 µg/mL | 0.893
[1], first compound 0.0625 µg/mL, partner 2.5 µg/mL | 0.802
[1], first compound 0.0625 µg/mL, partner 5 µg/mL | 0.758
[1], first compound 0.125 µg/mL, partner 5 µg/mL | 0.559
[1], first compound 0.25 µg/mL, partner 1.25 µg/mL | 0.0424
[1], first compound 0.25 µg/mL, partner 2.5 µg/mL | 0.038
[1], first compound 0.25 µg/mL, partner 5 µg/mL | 0.0455
[2], first compound 2 µg/mL, partner 0.325 µg/mL | 0.962
[2], first compound 2 µg/mL, partner 0.65 µg/mL | 0.964
[2], first compound 2 µg/mL, partner 1.3 µg/mL | 0.6
[2], first compound 4 µg/mL, partner 0.325 µg/mL | ≥ 1
[2], first compound 4 µg/mL, partner 0.65 µg/mL | 0.959
[2], first compound 4 µg/mL, partner 1.3 µg/mL | 0.599
[2], first compound 8 µg/mL, partner 0.325 µg/mL | 0.94
[2], first compound 8 µg/mL, partner 0.65 µg/mL | 0.865
[2], first compound 8 µg/mL, partner 1.3 µg/mL | 0.531
[3], first compound 0.5 µg/mL, partner 1.25 µg/mL | 0.908
[3], first compound 0.5 µg/mL, partner 2.5 µg/mL | 0.873
[3], first compound 1 µg/mL, partner 1.25 µg/mL | 0.942
[3], first compound 1 µg/mL, partner 2.5 µg/mL | 0.909
[3], first compound 1 µg/mL, partner 5 µg/mL | 0.645
[3], first compound 2 µg/mL, partner 1.25 µg/mL | 0.917
[3], first compound 2 µg/mL, partner 2.5 µg/mL | 0.903
[3], first compound 2 µg/mL, partner 5 µg/mL | 0.545

fitness, [3], one replicate, main component drawn
Conditions | first compound 0.375 µg/mL | first compound 0.75 µg/mL | first compound 1.5 µg/mL
partner 1.25 µg/mL | 0.76 | 0.775 | 0.774
partner 2.5 µg/mL | 0.791 | 0.776 | 0.783
partner 5 µg/mL | 0.439 | 0.463 | 0.421

main component drawn
Conditions | Bliss interaction score
[4] | 0.129
[5] | -0.113
[6] | 0.111
[7] | 0.0622
